Measured values taken from patent publication US11013780B2, “Methods of treating female infertility” (Myovant Sciences GmbH, priority 2016, dated 2021).
Where a SMILES comes first, the peptide text is derived from it. [ ]: non-standard residue; d: D form. Arg(Me) = CNC(=N)NCCC[C@H](N)C(=O)O; Hyp = O=C(O)[C@@H]1C[C@@H](O)CN1; azaGly = NNC(=O)O

How the values were obtained:
[1] = Pharmacokinetics in monkeys after SC and IV administration; conditions: monkey, in vivo
Description: The PK of API-MA was studied in monkeys after SC and IV administration.

[2] = Pharmacokinetics in dogs after SC and IV administration; conditions: dog, in vivo
Description: The PK of API-MA was studied in dogs after SC and IV administration.

[3] = Multiple-dose PK, 2-hour SC infusion once daily for 14 days, Japanese prostate cancer patients; type: in vivo, human; conditions: male, human, in vivo, sc; for dose excreted: Mean percent cumulative urinary excretion at 24 hours postdose
Procedure: It was an open-label, ascending dose study of API-MA administered via 2-hour SC infusion once daily for 14 days that was expected to suppress testosterone in Japanese hormone-naïve prostate cancer patients. Six patients received API-MA at doses of 0.5 mg (3 patients) and 1.0 mg (3 patients) a day for 14 days.
To measure plasma concentrations of API-MA, blood specimens were collected at the following times: Day 1 (predose and 2, 4, 6, 10 hours postdose); days 2, 4, 6, 8, 10, and 12 (predose); day 14 (predose and 2, 4, 6, 10, 24, 48 hours postdose); day 21; and day 28. To measure urinary excretion of API-MA, urine specimens were collected at the following times: Day 1 (predose and 0 to 4, 4 to 8, 8 to 12, 12 to 24 hours postdose) and day 14 (0 to 4, 4 to 8, 8 to 12, 12 to 24 hours postdose).

[4] = Pharmacokinetics in rats after SC and IV administration; conditions: rat, in vivo
Procedure: The PK of API-MA was studied in rats after SC and IV administration.
The PK linearity of API-MA was also investigated in rats after IV administration. The plasma C5min and AUC(0-24) values increased dose-proportionally. […] The elimination T1/2 values were 0.4 hours at 0.01 and 0.1 mg/kg and 0.5 hours at 1 mg/kg. These findings indicate that the PK of API-FB was linear in rats after single IV administration over the dose range of 0.01 to 1 mg/kg. The greater than dose-proportional increase in the first-pass kinetics with SC administration would indicate nonlinear PK in rats after SC administration.

[5] = iv, 1 mg/kg, T½ γ (elimination)

## CNC(=N)NCCC[C@H](NC(=O)[C@H](CC(C)C)NC(=O)NNC(=O)[C@H](Cc1ccccc1)NC(=O)[C@@H](NC(=O)[C@H](CC(N)=O)NC(=O)[C@@H]1C[C@@H](O)CN1C(=O)[C@@H](Cc1ccc(O)cc1)NC(C)=O)[C@@H](C)O)C(=O)N[C@@H](Cc1c[nH]c2ccccc12)C(N)=O [Compound 1, 2-(N-Acetyl-D-tyrosyl-trans-4-hydroxy-L-prolyl-L-asparaginyl-L-threonyl-L-phenylalanyl)-hydrazinocarbonyl-L-leucyl-Nω-methyl-L-arginyl-L-tryptophanamide] (Ac-[dY][Hyp]NTF[azaGly]L[Arg(Me)]W-NH2)
[1]; iv, 1 mg/kg
  AUC(0-t): 3160 ± 594 ng·h/mL
  Cmax at 5 min: 5030 ± 787 ng/mL
[1]; iv, 1 mg/kg, T½ α
  half-life: 0.3 h
[1]; iv, 1 mg/kg, T½ β
  half-life: 1.2 ± 0.1 h
[1]; [5]
  half-life: 3.2 ± 0.1 h
[1]; sc, 0.1 mg/kg
  AUC(0-t): 295 ± 27 ng·h/mL
  Cmax: 123 ± 27.3 ng/mL
  Tmax: 0.4 ± 0.1 h
  bioavailability: 94.9 ± 12.4%
[1]; sc, 0.1 mg/kg, T½ β
  half-life: 1.6 ± 0.3 h
[1]; sc, 1 mg/kg
  AUC(0-t): 2790 ± 262 ng·h/mL
  Cmax: 1320 ± 316 ng/mL
  Tmax: 0.3 h
  bioavailability: 90.1 ± 15.4%
[1]; sc, 1 mg/kg, T½ β
  half-life: 1.4 ± 0.2 h
[1]; sc, 1 mg/kg, T½ γ
  half-life: 2.5 ± 0.2 h
[1]; sc, 10 mg/kg
  AUC(0-t): 31600 ng·h/mL
  Cmax: 12100 ng/mL
  Tmax: 0.4 ± 0.1 h
  bioavailability: 102 ± 14.3%
[1]; sc, 10 mg/kg, T½ β
  half-life: 1.5 ± 0.3 h
[1]; sc, 10 mg/kg, T½ γ
  half-life: 2.6 ± 0.3 h
[2]; iv, 1 mg/kg
  AUC(0-t): 3090 ± 80 ng·h/mL
  Cmax at 5 min: 4250 ± 543 ng/mL
[2]; iv, 1 mg/kg, T½ α
  half-life: 0.2 h
[2]; iv, 1 mg/kg, T½ β
  half-life: 1.1 h
[2]; [5]
  half-life: 3 ± 0.1 h
[2]; sc, 0.1 mg/kg
  AUC(0-t): 252 ± 34 ng·h/mL
  Cmax: 86.6 ± 19 ng/mL
  Tmax: 0.8 ± 0.3 h
  bioavailability: 81.5 ± 11.5%
[2]; sc, 0.1 mg/kg, T½ β
  half-life: 1.4 ± 0.2 h
[2]; sc, 1 mg/kg
  AUC(0-t): 2600 ± 219 ng·h/mL
  Cmax: 883 ± 251 ng/mL
  Tmax: 0.8 ± 0.3 h
  bioavailability: 84 ± 8.1%
[2]; sc, 1 mg/kg, T½ β
  half-life: 1.4 ± 0.3 h
[2]; sc, 1 mg/kg, T½ γ
  half-life: 2.6 ± 0.2 h
[2]; sc, 10 mg/kg
  AUC(0-t): 28600 ng·h/mL
  Cmax: 8840 ± 1200 ng/mL
  Tmax: 1 h
  bioavailability: 92.7 ± 7.7%
[2]; sc, 10 mg/kg, T½ β
  half-life: 1.5 ± 0.4 h
[2]; sc, 10 mg/kg, T½ γ
  half-life: 2.6 ± 0.1 h
[3]; 0.5 mg/day
  Mean percent cumulative urinary excretion at 24 hours postdose: 8.99%
  dose excreted: 6.5%
[3]; 1 mg/day
  Mean percent cumulative urinary excretion at 24 hours postdose: 9.41%
  dose excreted: 8.86%
[4]; iv, 1 mg/kg
  AUC(0-t): 1460 ± 143 ng·h/mL
  Cmax at 5 min: 2670 ± 234 ng/mL
[4]; sc, 0.1 mg/kg
  AUC(0-t): 123 ± 9 ng·h/mL
  Cmax: 90 ± 12.5 ng/mL
  Tmax: 0.5 h
[4]; sc, 1 mg/kg
  AUC(0-t): 804 ± 133 ng·h/mL
  Cmax: 381 ± 75.5 ng/mL
  Tmax: 0.9 ± 0.2 h
  bioavailability: 55.3 ± 8.6%
[4]; sc, 10 mg/kg
  AUC(0-t): 309 ± 70 ng·h/mL
  Cmax: 285 ± 58.6 ng/mL
  Tmax: 0.3 h
